According to the supplement of paper PMC10307832:

compound: C[C@]1(c2nc3c(C(N)=O)cccc3[nH]2)CCCN1 [Veliparib] + CC(=O)Nc1cccc(-n2c(=O)n(C3CC3)c(=O)c3c(Nc4ccc(I)cc4F)n(C)c(=O)c(C)c32)c1 [Trametinib] (partner 0.02 µM); experiment: relative viability (nuclei count vs DMSO), 5 days (fraction); higher = more cells survive; settings: first compound 0.02 µM
Method in brief: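 Cells from lung cancer lines were seeded into 1536-well plates and, one day later, dosed by pin tool. Treatments were either a single drug or a fixed dose of an anchor drug with five library-drug doses (not always all listed) in √10 steps. After 5 days, nuclei were stained in a one-step fixation (final 0.05% Triton X-100, 1% formaldehyde, 1 ug/ml Hoechst) and counted on 4× images, and relative viability is the treated-to-vehicle nuclei ratio, as the median of duplicate plates.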

Row | Cell Line | relative viability
1 | NCI-H1651 | 0.844
2 | COR-L23 | 0.47
3 | HCC-827 | 0.59
4 | LCLC-103H | 0.764
5 | RERF-LC-KJ | 0.938
6 | NCI-H3122 | 0.181
7 | BEN | 1.11
8 | UMC-11 | 0.7
9 | LCLC-97TM1 | 0.221
10 | NCI-H2085 | 0.553
11 | A-427 | 0.792
12 | NCI-H727 | 0.379
13 | NCI-H838 | 0.566
14 | NCI-H1793 | 0.476
15 | 201T | 0.762
16 | NCI-H2228 | 0.362
17 | LOU-NH91 | 0.814
18 | NCI-H1666 | 0.84
19 | NCI-H650 | 0.999
20 | HCC-44 | 1.07
21 | NCI-H647 | 0.502
22 | NCI-H2126 | 0.571
23 | NCI-H1755 | 0.821
24 | PC-3 [JPC-3] | 0.596
25 | NCI-H1792 | 0.499
26 | NCI-H2087 | 0.198

same assay, conditions: first compound 0.06325 µM

Row | Cell Line | relative viability
27 | NCI-H1651 | 0.836
28 | COR-L23 | 0.609
29 | HCC-827 | 0.514
30 | LCLC-103H | 0.606
31 | RERF-LC-KJ | 0.822
32 | NCI-H3122 | 0.186
33 | BEN | 1.11
34 | UMC-11 | 0.759
35 | LCLC-97TM1 | 0.178
36 | NCI-H2085 | 0.494
37 | A-427 | 0.727
38 | NCI-H727 | 0.39
39 | NCI-H838 | 0.501
40 | NCI-H1793 | 0.417
41 | 201T | 0.719
42 | NCI-H2228 | 0.57
43 | LOU-NH91 | 0.789
44 | NCI-H1666 | 0.861
45 | NCI-H650 | 0.999
46 | NCI-H1993 | 0.63
47 | HCC-44 | 0.938
48 | NCI-H647 | 0.451
49 | NCI-H2126 | 0.512
50 | NCI-H1755 | 0.763
51 | NCI-H1792 | 0.411
52 | NCI-H2087 | 0.205

same assay, conditions: first compound 0.2 µM

Row | Cell Line | relative viability
53 | NCI-H1651 | 0.785
54 | COR-L23 | 0.501
55 | HCC-827 | 0.529
56 | LCLC-103H | 0.668
57 | RERF-LC-KJ | 0.899
58 | NCI-H3122 | 0.214
59 | BEN | 1.06
60 | UMC-11 | 0.707
61 | LCLC-97TM1 | 0.202
62 | NCI-H2085 | 0.615
63 | A-427 | 0.801
64 | NCI-H727 | 0.42
65 | NCI-H838 | 0.54
66 | NCI-H1793 | 0.474
67 | 201T | 0.699
68 | NCI-H2228 | 0.597
69 | LOU-NH91 | 0.793
70 | NCI-H1666 | 0.782
71 | NCI-H650 | 0.988
72 | NCI-H1993 | 0.519
73 | HCC-44 | 1.14
74 | NCI-H647 | 0.483
75 | NCI-H2126 | 0.574
76 | NCI-H1755 | 0.812
77 | PC-3 [JPC-3] | 0.749
78 | NCI-H1792 | 0.41
79 | NCI-H2087 | 0.215

same assay, conditions: first compound 0.6325 µM

Row | Cell Line | relative viability
80 | NCI-H1651 | 0.77
81 | COR-L23 | 0.539
82 | HCC-827 | 0.504
83 | LCLC-103H | 0.74
84 | RERF-LC-KJ | 0.845
85 | NCI-H3122 | 0.208
86 | BEN | 1.01
87 | UMC-11 | 0.682
88 | LCLC-97TM1 | 0.183
89 | NCI-H2085 | 0.532
90 | A-427 | 0.722
91 | NCI-H727 | 0.428
92 | NCI-H838 | 0.524
93 | NCI-H1793 | 0.361
94 | 201T | 0.746
95 | NCI-H2228 | 0.523
96 | LOU-NH91 | 0.725
97 | NCI-H1666 | 0.754
98 | NCI-H650 | 0.938
99 | NCI-H1993 | 0.425
100 | HCC-44 | 1.04
101 | NCI-H647 | 0.478
102 | NCI-H2126 | 0.526
103 | NCI-H1755 | 0.741
104 | PC-3 [JPC-3] | 0.685
105 | NCI-H1792 | 0.438
106 | NCI-H2087 | 0.168

same assay, conditions: first compound 2 µM

Row | Cell Line | relative viability
107 | NCI-H1651 | 0.8
108 | COR-L23 | 0.613
109 | HCC-827 | 0.516
110 | LCLC-103H | 0.718
111 | RERF-LC-KJ | 0.858
112 | NCI-H3122 | 0.233
113 | BEN | 1.08
114 | UMC-11 | 0.635
115 | LCLC-97TM1 | 0.198
116 | NCI-H2085 | 0.556
117 | A-427 | 0.875
118 | NCI-H727 | 0.416
119 | NCI-H838 | 0.521
120 | NCI-H1793 | 0.465
121 | 201T | 0.738
122 | NCI-H2228 | 0.368
123 | LOU-NH91 | 0.811
124 | NCI-H1666 | 0.926
125 | NCI-H650 | 0.971
126 | NCI-H1993 | 0.552
127 | HCC-44 | 1.06
128 | NCI-H647 | 0.481
129 | NCI-H2126 | 0.531
130 | NCI-H1755 | 0.768
131 | PC-3 [JPC-3] | 0.682
132 | NCI-H1792 | 0.401
